# Source: patent US7960543B2, “Nucleoside or nucleotide derivative and use thereof” (RIKEN, priority 2004, dated 2011)
# “And” between values parts separate entries of the source, which are not always exact repeats. Equal entries are not always repeated. Where two headings read alike, the source gives them in different places.
# Columns and labels:
# [1] = for Emission maxima: excited at the wavelength printed in the cell (493, 553 or 320 nm), pH 7.0, 25° C.; for Quantum yield: pH 7.0 aqueous solution, standard fluorescein in 0.1 N NaOH, φs=0.90
# Experimental: A 3×3 mm cell was used for measurement, and the following settings were used to measure each spectrum: response 1.0 s, sensitivity low, and slit width fixed at 3 nm for both excitation and fluorescence sides.
# The quantum yield (φ) was calculated according to the following equation and fluorescein (1.0 μM in 0.1 N NaOH, φs=0.90) was used as a standard. φ=(F·As·η^2·φs)/(A·Fs·η0^2)
# F: Area of each fluorescence spectrum
# A: Absorbance at the excitation wavelength
# η: Refractive index (water: 1.33)
# T7 RNA polymerase [2] = target: T1, T7 RNA polymerase (Escherichia phage T7, UniProt P00573); conditions: compared to transcription using the natural template and substrates only; 1 mM modified yTP, 37° C., 3 hours
# Experimental: More specifically, double-stranded template DNA (10 μM) was annealed in 10 mM Tris-HCl buffer (pH 7.6) containing 10 mM NaCl under the following conditions: 95° C. for 3 minutes→50° C. for 3 minutes→slow cooling to 4° C. T7 transcription reaction was accomplished in a reaction solution (20 μl) containing 40 mM Tris-HCl buffer (pH 8.0), 24 mM MgCl2, 2 mM spermidine, 5 mM DTT, 0.01% Triton X-100, 2 μCi [y-^32P]GTP, 1 mM NTPs, 1 mM modified yTP, 2 μM template DNA, and 50 units of T7 RNA polymerase (Takara).
# The template DNA used was a duplex formed between T7 promoter-containing 35-mer template strand and T7 promoter non-template strand 21-mer, which has been modified to have s or v introduced at a single position within the template.
# where N(5)=v (the present invention), s (the present invention) or A (control)
# where N′(13)=NH2-y, FAM-y or TAMRA-y
# The modified substrate was added in the same amount as the natural substrates and reacted at 37° C. for 3 hours, followed by addition of an electrophoresis dye solution (20 μl) containing 10 M urea to stop the reaction. The reaction solution was heated at 75° C. for 3 minutes and then electrophoresed on a 20% polyacrylamide-7 M urea gel. The transcripts were analyzed with a bio-imaging analyzer.
# T7 RNA polymerase [3] = target: T1, T7 RNA polymerase; conditions: RNA 17-mer transcript, RNase T2 digest, [α-32P]ATP
# Experimental: The same T7 RNA polymerase-mediated transcription reaction as shown in Example 11 was performed in a reaction solution containing 40 mM Tris-HCl buffer (pH 8.0), 24 mM MgCl2, 2 mM spermidine, 5 mM DTT, 0.01% Triton X-100, 2 μCi [α-^32P]ATP, 1 mM NTPs, 1 mM modified-yTP, 2 μM template DNA, and 50 units of T7 RNA polymerase (Takara). After electrophoresis on a 15% polyacrylamide-7 M urea gel, the transcript was eluted from the gel and collected by ethanol precipitation in the presence of tRNA (0.25 OD).
# To this tRNA-containing solution (8.5 μl), RNase T2 (1.5 μl, 1 unit/μl) was added and reacted overnight at 37° C. 0.3 μl of this solution was spotted on a TLC plate (Merck, 10 cm×10 cm) and developed two-dimensionally. As a developing solution, isobutyric acid:concentrated aqueous ammonia:water=66:1:33 (v/v/v) was used for the first dimension and 2-propanol:hydrochloric acid:water=65:10:25 (v/v/v) was used for the second dimension. The developed spots were detected and analyzed with a bio-imaging analyzer.
# [4] = 1.0 μM in 10 mM sodium phosphate buffer (pH 7.0), 25° C.
# T1 sequence (P00573 whole entry): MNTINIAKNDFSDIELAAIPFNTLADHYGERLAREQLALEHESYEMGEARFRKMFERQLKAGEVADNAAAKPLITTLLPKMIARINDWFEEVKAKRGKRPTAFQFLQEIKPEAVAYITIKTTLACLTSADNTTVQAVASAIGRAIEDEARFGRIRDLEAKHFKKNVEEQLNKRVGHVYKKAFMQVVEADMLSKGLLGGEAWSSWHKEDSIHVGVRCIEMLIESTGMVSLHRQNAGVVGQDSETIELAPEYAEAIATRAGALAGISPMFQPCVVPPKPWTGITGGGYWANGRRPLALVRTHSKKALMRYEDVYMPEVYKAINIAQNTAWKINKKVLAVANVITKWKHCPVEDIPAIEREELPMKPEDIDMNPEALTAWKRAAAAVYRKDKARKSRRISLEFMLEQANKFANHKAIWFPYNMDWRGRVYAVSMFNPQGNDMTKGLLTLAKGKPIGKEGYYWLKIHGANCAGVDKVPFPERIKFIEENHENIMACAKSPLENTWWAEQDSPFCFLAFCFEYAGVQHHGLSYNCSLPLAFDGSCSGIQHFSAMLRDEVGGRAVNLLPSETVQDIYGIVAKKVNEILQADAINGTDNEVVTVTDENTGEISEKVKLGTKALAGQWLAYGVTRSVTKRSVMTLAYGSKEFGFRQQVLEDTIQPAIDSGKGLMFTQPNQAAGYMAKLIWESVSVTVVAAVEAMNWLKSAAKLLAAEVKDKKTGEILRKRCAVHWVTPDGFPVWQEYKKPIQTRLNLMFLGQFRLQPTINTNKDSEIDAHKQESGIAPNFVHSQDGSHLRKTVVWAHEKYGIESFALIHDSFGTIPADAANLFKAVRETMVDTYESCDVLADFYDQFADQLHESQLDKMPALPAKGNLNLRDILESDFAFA
SMILES,"Absorption maxima [1, 4]",Emission maxima [1],Quantum yield [1],"ε at absorption maximum [1, 4]",yield of RNA incorporating the modified substrate (T7 RNA polymerase [2]),incorporation opposite v in the template (T7 RNA polymerase [3]),Absorption maxima ([1]; pH 7),ε at absorption maximum ([1]; pH 7)
"CN(C)c1cccc2c(S(=O)(=O)NCCCCCC(=O)NCCCCCC(=O)NCC#Cc3c[nH]c(=O)c([C@@H]4O[C@H](COP(=O)(O)OP(=O)(O)OP(=O)(O)O)[C@@H](O)[C@H]4O)c3)cccc12 [Dansyl-x-yTP, 3-(β-D-ribofuranosyl)-5-[3-[6-[6-[(5-dimethylaminonaphthalene-1-sulfonyl)amino]hexanamido]hexanamido]-1-propynyl]-2-oxo(1H)pyridine 5′-triphosphate]",319 nm and 252 nm,387 nm and 541 nm,0.014,–,–,–,–,–
"O=C(CCCCCNC(=O)c1ccc2c(c1)C(=O)OC21c2ccc(O)cc2Oc2cc(O)ccc21)NCC#Cc1c[nH]c(=O)c([C@@H]2O[C@H](COP(=O)(O)OP(=O)(O)OP(=O)(O)O)[C@@H](O)[C@H]2O)c1 [FAM-yTP, 3-(β-D-ribofuranosyl)-5-[3-[6-(fluorescein-5-carboxamido)hexanamido]-1-propynyl]-2-oxo(1H)pyridine 5′-triphosphate]",493 nm,–,0.55,"62,000",76%,–,–,–
"NCCCCCC(=O)NCC#Cc1c[nH]c(=O)c([C@@H]2O[C@H](COP(=O)(O)OP(=O)(O)OP(=O)(O)O)[C@@H](O)[C@H]2O)c1 [NH2-yTP, 3-(β-D-ribofuranosyl)-5-[3-(6-aminohexanamido)-1-propynyl]-2-oxo(1H)pyridine 5′-triphosphate]",–,–,–,–,same yield,specific incorporation,–,–
"CN(C)c1ccc2c(-c3cc(C(=O)NCCCCCC(=O)NCC#Cc4c[nH]c(=O)c([C@@H]5O[C@H](COP(=O)(O)OP(=O)(O)OP(=O)(O)O)[C@@H](O)[C@H]5O)c4)ccc3C(=O)[O-])c3ccc(N(C)C)cc3[o+]c2c1 [TAMRA-yTP, 3-(β-D-ribofuranosyl)-5-[3-[6-(tetramethylrhodamine-5-carboxamido)hexanamido]-1-propynyl]-2-oxo(1H)pyridine 5′-triphosphate]",–,–,0.50,–,61%,–,"553 nm and 553 (ε 85,000) nm","553 (ε 85,000)"
"O=C(NCC#Cc1c[nH]c(=O)c([C@@H]2O[C@H](COP(=O)(O)OP(=O)(O)OP(=O)(O)O)[C@@H](O)[C@H]2O)c1)c1ccc2c(c1)C(=O)OC21c2ccc(O)cc2Oc2cc(O)ccc21 [short FAM-yTP, 3-(β-D-ribofuranosyl)-5-[3-(fluorescein-5-carboxamido)-1-propynyl]-2-oxo(1H)pyridine 5′-triphosphate]",493 nm,521 (excited at 493 nm),0.67,"70,000",–,–,–,–
